The target of one experiment is T1, α1d-AR (Homo sapiens, UniProt P25100).
T1 construct: expressed in transfected cells; host or cells: COS-7
T1 sequence (P25100 1-572): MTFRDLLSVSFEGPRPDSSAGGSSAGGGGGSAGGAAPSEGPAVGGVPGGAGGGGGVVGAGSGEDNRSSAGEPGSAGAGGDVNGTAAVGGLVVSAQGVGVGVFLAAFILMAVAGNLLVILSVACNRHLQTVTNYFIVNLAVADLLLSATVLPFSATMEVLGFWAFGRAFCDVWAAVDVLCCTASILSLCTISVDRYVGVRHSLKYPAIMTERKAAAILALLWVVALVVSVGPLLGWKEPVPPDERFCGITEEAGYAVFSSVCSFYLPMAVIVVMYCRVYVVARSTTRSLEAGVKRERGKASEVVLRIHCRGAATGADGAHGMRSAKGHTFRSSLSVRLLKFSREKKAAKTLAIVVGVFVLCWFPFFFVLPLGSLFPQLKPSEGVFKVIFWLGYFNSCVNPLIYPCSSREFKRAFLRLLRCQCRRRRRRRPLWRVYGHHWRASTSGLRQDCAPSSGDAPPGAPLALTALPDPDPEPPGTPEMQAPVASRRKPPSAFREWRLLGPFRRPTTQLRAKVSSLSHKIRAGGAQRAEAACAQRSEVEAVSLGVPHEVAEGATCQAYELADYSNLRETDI
Description: α1-Adrenergic receptor radio-ligand (125I-HEAT) binding assay, α1d subtype. As to conditions: COS-7 cell membranes, 125I-HEAT; read-out: Receptor Binding, Ki α1d-AR.

In a further experiment the target is T2, α1b-AR (Homo sapiens, UniProt P35368).
T2 sequence (P35368 1-520): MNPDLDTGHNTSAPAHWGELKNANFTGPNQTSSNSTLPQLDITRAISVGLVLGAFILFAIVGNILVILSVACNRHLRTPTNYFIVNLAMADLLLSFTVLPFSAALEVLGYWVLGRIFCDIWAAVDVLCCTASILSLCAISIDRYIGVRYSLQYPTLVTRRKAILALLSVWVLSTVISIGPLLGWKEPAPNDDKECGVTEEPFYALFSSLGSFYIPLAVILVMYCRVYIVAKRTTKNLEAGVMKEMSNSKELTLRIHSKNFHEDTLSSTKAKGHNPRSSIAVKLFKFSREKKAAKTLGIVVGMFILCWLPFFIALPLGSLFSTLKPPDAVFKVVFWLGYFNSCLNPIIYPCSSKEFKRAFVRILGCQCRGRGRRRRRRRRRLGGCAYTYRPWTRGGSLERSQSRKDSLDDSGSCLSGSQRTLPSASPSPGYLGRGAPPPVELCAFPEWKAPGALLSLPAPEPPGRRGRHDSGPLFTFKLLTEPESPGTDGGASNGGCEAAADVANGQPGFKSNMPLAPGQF
Description: α1-Adrenergic receptor radio-ligand (125I-HEAT) binding assay, α1b subtype. The settings on record: Receptor Binding, Ki α1b-AR, COS-7 cell membranes, 125I-HEAT.

The next experiment addresses T3, α1a-AR (Homo sapiens, UniProt P35348).
T3 construct: expressed in transfected cells; host or cells: COS-7
T3 sequence (P35348 1-466): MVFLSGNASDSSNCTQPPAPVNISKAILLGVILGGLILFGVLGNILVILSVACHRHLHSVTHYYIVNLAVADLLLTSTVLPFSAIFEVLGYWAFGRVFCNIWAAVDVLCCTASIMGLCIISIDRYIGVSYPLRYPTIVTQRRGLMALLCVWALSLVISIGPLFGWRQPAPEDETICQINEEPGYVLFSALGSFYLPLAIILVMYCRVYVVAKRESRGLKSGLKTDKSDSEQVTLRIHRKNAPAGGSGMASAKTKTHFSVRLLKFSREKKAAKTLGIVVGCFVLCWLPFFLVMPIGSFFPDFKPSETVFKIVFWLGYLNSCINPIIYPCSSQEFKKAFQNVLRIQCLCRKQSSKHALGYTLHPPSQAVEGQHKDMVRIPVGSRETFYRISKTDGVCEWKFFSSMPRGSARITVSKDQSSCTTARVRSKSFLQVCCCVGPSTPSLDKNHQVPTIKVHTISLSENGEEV
The experiment is described as follows: α1-Adrenergic receptor radio-ligand (125I-HEAT) binding assay, α1a subtype. As to conditions: COS-7 cell membranes, 125I-HEAT. How it is done: α1-Adrenergic Receptor Binding Assay: Preparation of COS Cell Membranes
Membranes were prepared from COS-7 cells that had been transfected with one of the three α1-AR subtypes by the following method. COS cells from ten 100 mm tissue culture plates were scraped into 5 mL TE (50 mM Tris-HCl, 5 mM EDTA, pH 7.4). The cell suspension was disrupted with a Brinkman Polytron, setting 8, for 10 sec. The disrupted cells were centrifuged at 1000×g for 10 min at 4° C. Supernatants were centrifuged at 34,500×g for 20 min at 4° C. The membrane pellets were suspended in 2 mL TNE (50 mM Tris-HCl, 5 mM EDTA, 150 mM NaCl, pH7.4). An aliquot of the membrane suspension was stored at −70° C. until use. The protein concentration was determined using the BioRad DC protein assay kit following membrane solubilization with Triton X-100.
Radio-Ligand Binding Assay
Triplicate determinations of radio-ligand binding in the presence of increasing: concentrations of testing compound were made. The reagents were added to 96-well polypropylene plate wells using the Biomek 1000 robot (Beckman Instruments). Each assay well contained 140 μl TNE, 25 μL ^125I-HEAT (specific activity 2200 Ci/mmol, Dupont-NEN, 50 pM final), 10 μL testing compound dissolved in DMSO (1 pM to 10 μM in half-log increments, final), and 25 μL appropriate α1-AR membrane subtype suspension in TNE (0.5 ng/μL for the α1a and α1b subtypes and 13 ng/μL for the α1d subtype). The plate was incubated at rt for 1 hr. The contents of the wells were filtered through a GF/C membrane Unifilter plate (Packard Instruments) using the Packard Filtermate cell harvester. The filter plates were dried in a vacuum oven for 30 min at 40° C. 25 μL Microscint 20 liquid scintillation fluid (Packard Instuments) was added to each well. The radioactive content was analyzed in the TopCount microplate scintillation counter (Packard Instruments).

The source of these data is patent US20060173015A1, “Cyclohexyldiamines as selective alpha 1a/1d adrenoreceptor antagonists for the treatment of benign prostatic hypertrophy and lower urinary tract symptoms” (priority 2004, published 2006).

On to `COc1ccc(S(=O)(=O)N[C@H]2CC[C@@H](N3CCN(c4cc(F)ccc4OCC(F)(F)F)CC3)CC2)cc1OC` [Cpd 83, N-cis-(4-{4-[5-Fluoro-2-(2,2,2-trifluoro-ethoxy)-phenyl]-piperazin-1-yl}-cyclohexyl)-3,4-dimethoxy-benzenesulfonamide], for which the results for the Ki at α1d-AR, at α1b-AR and at α1a-AR were 0.58 nM, 75 nM and 1.7 nM, respectively.
In the same order, the values of `COc1ccc([N+](=O)[O-])cc1S(=O)(=O)N[C@H]1CC[C@H](N2CCN(c3ccccc3OC(C)C)CC2)CC1` [Cpd 47, N-trans-{4-[4-(2-Isopropoxy-phenyl)-piperazin-1-yl]-cyclohexyl}-2-methoxy-5-nitro-benzenesulfonamide] are 22 nM, 173 nM and 1 nM.
Consider `CC(C)Oc1ccccc1N1CCN([C@H]2CC[C@@H](NS(=O)(=O)c3ccc(Cl)cc3Cl)CC2)CC1` [Cpd 1, 2,4-Dichloro-N-cis-{4-[4-(2-isopropoxy-phenyl)-piperazine-1-yl]-cyclohexyl}-benzenesulfonamide], for which the inhibition constant Ki at α1d-AR is 0.64 nM; on α1b-AR it was 177 nM; on α1a-AR it was 4.5 nM.
In the same order, the values of `CC(C)Oc1ccccc1N1CCN([C@H]2CC[C@@H](NS(=O)(=O)c3ccccc3)CC2)CC1` [Cpd 25] are 5.2 nM, 111 nM and 13.7 nM.
Regarding `COc1ccc(S(=O)(=O)N[C@H]2CC[C@@H](N3CCN(c4ccc(F)cc4OCC(F)(F)F)CC3)CC2)cc1OC` [Cpd 75, N-cis-(4-{4-[4-Fluoro-2-(2,2,2-trifluoro-ethoxy)-phenyl]-piperazin-1-yl}-cyclohexyl)-3,4-dimethoxy-benzenesulfonamide], the Ki was found to be 5.2 nM on α1d-AR, 176 nM at α1b-AR and 13.9 nM at α1a-AR.
The like results for `CC(C)Oc1cc(F)ccc1N1CCN([C@H]2CC[C@H](NS(=O)(=O)c3cc(Cl)ccc3F)CC2)CC1` [Cpd 79, 5-Chloro-2-fluoro-N-trans-{4-[4-(4-fluoro-2-isopropoxy-phenyl)-piperazin-1-yl]-cyclohexyl}-benzenesulfonamide] were, in that order, 14 nM, 107 nM and 5.4 nM.
As for `CC(C)Oc1ccccc1N1CCN([C@H]2CC[C@H](NS(=O)(=O)c3ccccc3[N+](=O)[O-])CC2)CC1` [Cpd 54], the results for the Ki on α1d-AR, at α1b-AR and at α1a-AR were 27 nM, 236 nM and 1 nM, respectively.
The like results for `CC(C)Oc1ccccc1N1CCN([C@H]2CC[C@@H](NS(=O)(=O)c3ccccc3C(F)(F)F)CC2)CC1` [Cpd 13, N-cis-{4-[4-(2-Isopropoxy-phenyl)-piperazin-1-yl]-cyclohexyl}-2-trifluoromethyl-benzenesulfonamide] were, in that order, 3.4 nM, 190 nM and 23 nM.
Turning to `COc1ccc(Cl)cc1S(=O)(=O)N[C@H]1CC[C@H](N2CCN(c3ccc(F)cc3OCC(F)(F)F)CC2)CC1` [Cpd 81, 5-Chloro-N-trans-(4-{4-[4-fluoro-2-(2,2,2-trifluoro-ethoxy)-phenyl]-piperazin-1-yl}-cyclohexyl)-2-methoxy-benzenesulfonamide], the values for the Ki at α1d-AR, at α1b-AR and on α1a-AR were 51 nM, 90 nM and 34 nM, respectively.
In the case of `CC(C)Oc1ccccc1N1CCN([C@H]2CC[C@@H](NS(=O)(=O)c3ccccc3[N+](=O)[O-])CC2)CC1` [Cpd 26], the results for the Ki on α1d-AR, on α1b-AR and at α1a-AR were 2.5 nM, 201 nM and 6.3 nM, respectively.
Regarding `Cc1c(Cl)cccc1S(=O)(=O)N[C@H]1CC[C@H](N2CCN(c3ccccc3OC(C)C)CC2)CC1` [Cpd 39, 3-Chloro-N-trans-{4-[4-(2-isopropoxy-phenyl)-piperazin-1-yl]-cyclohexyl}-2-methyl-benzenesulfonamide], the figures for the Ki at α1d-AR, on α1b-AR and at α1a-AR were 5.4 nM, 554 nM and 1.1 nM, respectively.
In the same order, the values of `CCN([C@H]1CC[C@@H](N2CCN(c3ccccc3OC(C)C)CC2)CC1)S(=O)(=O)c1ccc(OC)c(OC)c1` [Cpd 67, N-Ethyl-N-cis-{4-[4-(2-isopropoxy-phenyl)-piperazin-1-yl]-cyclohexyl}-3,4-dimethoxy-benzenesulfonamide] are 22 nM, 326 nM and 15 nM.
The like results for `CC(C)Oc1ccccc1N1CCN([C@H]2CC[C@H](NS(=O)(=O)c3cc(Cl)ccc3F)CC2)CC1` [Cpd 40, 5-Chloro-2-fluoro-N-trans-{4-[4-(2-isopropoxy-phenyl)-piperazin-1-yl]-cyclohexyl}-benzenesulfonamide] were, in that order, 27.3 nM, 441 nM and 8.9 nM.
Turning to `COc1ccc(C(F)(F)F)cc1S(=O)(=O)N[C@H]1CC[C@@H](N2CCN(c3ccccc3OC(C)C)CC2)CC1` [Cpd 20, N-cis-{4-[4-(2-Isopropoxy-phenyl)-piperazin-1-yl]-cyclohexyl}-2-methoxy-5-trifluoromethyl-benzenesulfonamide], the Ki was 14 nM on α1d-AR, 473 nM on α1b-AR and 35.9 nM at α1a-AR.
The like results for `CC(C)Oc1ccccc1N1CCN([C@H]2CC[C@H](NS(=O)(=O)c3ccccc3)CC2)CC1` [Cpd 53] were, in that order, 55 nM, 487 nM and 2.7 nM.
The like results for `COc1ccncc1S(=O)(=O)N[C@H]1CC[C@@H](N2CCN(c3ccccc3OC(C)C)CC2)CC1` [Cpd 60, 4-Methoxy-pyridine-3-sulfonic acid N-cis-{4-[4-(2-isopropoxy-phenyl)-piperazin-1-yl]-cyclohexyl}-amide] were, in that order, 9.4 nM, 169 nM and 4.9 nM.
The like results for `COc1ccc(C)cc1S(=O)(=O)N[C@H]1CC[C@@H](N2CCN(c3ccccc3OC(C)C)CC2)CC1` [Cpd 4, N-cis-{4-[4-(2-Isopropoxy-phenyl)-piperazin-1-yl]-cyclohexyl}-2-methoxy-5-methyl-benzenesulfonamide] were, in that order, 3.8 nM, 141 nM and 4.6 nM.
